Experimental data published in article PMC3199286 (ACS chemical biology, 2011).

What was measured:
PRMT1 [1] = target: T1, PRMT1 (Homo sapiens, UniProt Q99873); assay: Active PRMT1 in MCF-7 nuclear extracts after estrogen stimulation; assay type: cell-based; conditions: 10 nM E2, 5 minute time point
PRMT1 [2] = target: T1, PRMT1; assay: Active PRMT1 in MCF-7 cytoplasmic extracts after estrogen stimulation; assay type: cell-based
PRMT1 [3] = conditions: ref [15]–[17]; cited from earlier work

T1 sequence (Q99873 whole entry): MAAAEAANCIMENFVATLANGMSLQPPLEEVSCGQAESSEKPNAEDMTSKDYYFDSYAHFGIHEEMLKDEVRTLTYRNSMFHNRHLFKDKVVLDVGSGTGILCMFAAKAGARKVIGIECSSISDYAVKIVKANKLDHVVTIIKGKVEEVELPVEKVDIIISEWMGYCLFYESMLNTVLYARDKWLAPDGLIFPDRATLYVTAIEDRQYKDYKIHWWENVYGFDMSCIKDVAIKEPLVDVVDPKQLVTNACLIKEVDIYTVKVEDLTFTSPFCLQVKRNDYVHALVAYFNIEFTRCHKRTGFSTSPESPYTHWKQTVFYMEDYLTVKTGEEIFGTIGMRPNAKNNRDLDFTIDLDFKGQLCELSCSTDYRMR

Q: With estrogen as the substance, how does the “maximum reduction of active PRMT1 in nucleus” value (PRMT1 [1]) read?
A: The value was 3 fold.

Q: What about the “increase of active PRMT1 in cytoplasm” value (PRMT1 [2]; 10 nM E2, 5 minutes after addition, MCF-7) of the same substance?
A: Its value is 2.5 fold.

Q: What about the “time of maximum active PRMT1 in cytoplasm” value (PRMT1 [2]; 10 nM E2, MCF-7) of the same substance?
A: Its value is 10 min.

Q: What about the “time of return of active cytoplasmic PRMT1 to basal levels” value (PRMT1 [2]; 10 nM E2, MCF-7) of the same substance?
A: The value was ~ 15 minutes.

Q: And the “total PRMT1 levels in cytosolic and nuclear extracts (loading control) after estrogen” value (PRMT1 [2]; 10 nM E2, MCF-7, 10% loading control, Figure 6A lower panel)?
A: The value was “remain constant”.

Q: Which PRMT1 substrate quality (PRMT1 [3]) does the source give for “AcH4-21: peptide which consists of the first 21 amino acids of histone H4, highly efficient PRMT1 substrate” here?
A: The PRMT1 substrate quality was “highly efficient PRMT1 substrate”.
